Measurements as given in ChEMBL document CHEMBL3885881, “DrugMatrix”.

Organism: Rattus norvegicus
Assay: DrugMatrix - Regimen: Daily Repeat
Assay type: toxicity, organism-based, Sprague-Dawley
Design: regimen Daily Repeat, gender Male, age 6-8 weeks
Settings: in vivo, po, route oral GAVAGE, […]; for ABSOLUTE BASOPHIL / ABSOLUTE EOSINOPHIL / ABSOLUTE LYMPHOCYTE / ABSOLUTE MONOCYTE / ABSOLUTE SEGMENTED NEUTROPHIL / BASOPHIL / EOSINOPHIL / ERYTHROCYTE COUNT / HEMATOCRIT / HEMOGLOBIN / LEUKOCYTE COUNT / LYMPHOCYTE / MEAN CORPUSCULAR HEMOGLOBIN / MEAN CORPUSCULAR HEMOGLOBIN CONCENTRATION / MONOCYTE / NEUTROPHIL / NUCLEATED RED BLOOD CELLS / PLATELET COUNT: tissue Blood; for ALANINE AMINOTRANSFERASE / ALBUMIN / ALKALINE PHOSPHATASE / ASPARTATE AMINOTRANSFERASE / BLOOD UREA NITROGEN / CARBON DIOXIDE / CHLORIDE / CHOLESTEROL / CREATINE PHOSPHOKINASE / CREATININE / LACTATE DEHYDROGENASE / LIPASE / PHOSPHORUS / POTASSIUM / SODIUM / TOTAL BILIRUBIN / TOTAL PROTEIN / URIC ACID: tissue Plasma
[1] = 10 mg/kg, 120 h, dose level Low, time 5 day
[2] = 1800 mg/kg, 72 h, dose level High, time 3 day
[3] = 1800 mg/kg, 120 h, dose level High, time 5 day

## CN(CCOc1ccc(CC2SC(=O)NC2=O)cc1)c1ccccn1 (stereo not drawn) [ROSIGLITAZONE]
[1]
  ABSOLUTE BASOPHIL: 0 CELLS/uL
  ABSOLUTE EOSINOPHIL: 76.67 CELLS/uL
  ABSOLUTE LYMPHOCYTE: 6940.67 CELLS/uL
  ABSOLUTE MONOCYTE: 0 CELLS/uL
  ABSOLUTE SEGMENTED NEUTROPHIL: 749.33 CELLS/uL
  BASOPHIL: 0%
  EOSINOPHIL: 1%
  ERYTHROCYTE COUNT: 4.86 x10E6/uL
  HEMATOCRIT: 32.47%
  HEMOGLOBIN: 12.6 G/DL
  LEUKOCYTE COUNT: 7.77 x10E3/uL
  LYMPHOCYTE: 89.33%
  MEAN CORPUSCULAR HEMOGLOBIN: 25.9 pg
  MEAN CORPUSCULAR HEMOGLOBIN CONCENTRATION: 38.83 G/DL
  MONOCYTE: 0%
  NEUTROPHIL: 9.67%
  NUCLEATED RED BLOOD CELLS: 0 /100WBC
  PLATELET COUNT: 1021.33 x10E3/uL
  ALANINE AMINOTRANSFERASE: 62 u/L
  ALBUMIN: 3.97 G/DL
  ALKALINE PHOSPHATASE: 357.67 u/L
  ASPARTATE AMINOTRANSFERASE: 91 u/L
  BLOOD UREA NITROGEN: 16.67 mg/dL
  CARBON DIOXIDE: 33.33 mmol/L
  CHLORIDE: 101 MEQ/L
  CHOLESTEROL: 67.67 mg/dL
  CREATINE PHOSPHOKINASE: 238 u/L
  CREATININE: 0.13 mg/dL
  LACTATE DEHYDROGENASE: 63.33 u/L
  LIPASE: 13.67 u/L
  PHOSPHORUS: 10.13 mg/dL
  POTASSIUM: 4.62 MEQ/L
  SODIUM: 146.1 MEQ/L
  TOTAL BILIRUBIN: 0.0333 mg/dL
  TOTAL PROTEIN: 5.5 G/DL
  URIC ACID: 0.27 mg/dL
[2]
  ABSOLUTE BASOPHIL: 0 CELLS/uL
  ABSOLUTE EOSINOPHIL: 26 CELLS/uL
  ABSOLUTE LYMPHOCYTE: 10365.67 CELLS/uL
  ABSOLUTE MONOCYTE: 125.33 CELLS/uL
  ABSOLUTE SEGMENTED NEUTROPHIL: 983 CELLS/uL
  BASOPHIL: 0%
  EOSINOPHIL: 0.33%
  ERYTHROCYTE COUNT: 5.03 x10E6/uL
  HEMATOCRIT: 31.87%
  HEMOGLOBIN: 12.43 G/DL
  LEUKOCYTE COUNT: 11.5 x10E3/uL
  LYMPHOCYTE: 90.67%
  MEAN CORPUSCULAR HEMOGLOBIN: 24.77 pg
  MEAN CORPUSCULAR HEMOGLOBIN CONCENTRATION: 39.03 G/DL
  MONOCYTE: 0.67%
  NEUTROPHIL: 8.33%
  NUCLEATED RED BLOOD CELLS: 0 /100WBC
  PLATELET COUNT: 1207.33 x10E3/uL
  ALANINE AMINOTRANSFERASE: 77.67 u/L
  ALBUMIN: 3.97 G/DL
  ALKALINE PHOSPHATASE: 304.33 u/L
  ASPARTATE AMINOTRANSFERASE: 99.67 u/L
  BLOOD UREA NITROGEN: 14.67 mg/dL
  CARBON DIOXIDE: 29.33 mmol/L
  CHLORIDE: 103 MEQ/L
  CHOLESTEROL: 44.67 mg/dL
  CREATINE PHOSPHOKINASE: 406.67 u/L
  CREATININE: 0.29 mg/dL
  LACTATE DEHYDROGENASE: 107.33 u/L
  LIPASE: 23.33 u/L
  PHOSPHORUS: 8.37 mg/dL
  POTASSIUM: 4.78 MEQ/L
  SODIUM: 144.7 MEQ/L
  TOTAL BILIRUBIN: 0.17 mg/dL
  TOTAL PROTEIN: 5.07 G/DL
  URIC ACID: 0.43 mg/dL
[3]
  ABSOLUTE BASOPHIL: 0 CELLS/uL
  ABSOLUTE EOSINOPHIL: 16.67 CELLS/uL
  ABSOLUTE LYMPHOCYTE: 4629 CELLS/uL
  ABSOLUTE MONOCYTE: 80.67 CELLS/uL
  ABSOLUTE SEGMENTED NEUTROPHIL: 707 CELLS/uL
  BASOPHIL: 0%
  EOSINOPHIL: 0.33%
  ERYTHROCYTE COUNT: 5.6 x10E6/uL
  HEMATOCRIT: 34.33%
  HEMOGLOBIN: 13.27 G/DL
  LEUKOCYTE COUNT: 5.43 x10E3/uL
  LYMPHOCYTE: 85.33%
  MEAN CORPUSCULAR HEMOGLOBIN: 23.8 pg
  MEAN CORPUSCULAR HEMOGLOBIN CONCENTRATION: 38.7 G/DL
  MONOCYTE: 1.33%
  NEUTROPHIL: 13%
  NUCLEATED RED BLOOD CELLS: 0 /100WBC
  PLATELET COUNT: 1134.33 x10E3/uL
  ALANINE AMINOTRANSFERASE: 160.33 u/L
  ALBUMIN: 3.97 G/DL
  ALKALINE PHOSPHATASE: 307 u/L
  ASPARTATE AMINOTRANSFERASE: 119 u/L
  BLOOD UREA NITROGEN: 16 mg/dL
  CARBON DIOXIDE: 26.67 mmol/L
  CHLORIDE: 98.67 MEQ/L
  CHOLESTEROL: 66.33 mg/dL
  CREATINE PHOSPHOKINASE: 501.67 u/L
  CREATININE: 0.25 mg/dL
  LACTATE DEHYDROGENASE: 115 u/L
  LIPASE: 9.67 u/L
  PHOSPHORUS: 7.87 mg/dL
  POTASSIUM: 4.33 MEQ/L
  SODIUM: 141.6 MEQ/L
  TOTAL BILIRUBIN: 0.2 mg/dL
  TOTAL PROTEIN: 5.1 G/DL
  URIC ACID: 0.3 mg/dL
